Experimental data from patent publication US20210220494A1, “COMPOSITIONS AND METHODS FOR TARGETED PARTICLE PENETRATION, DISTRIBUTION, AND RESPONSE IN MALIGNANT BRAIN TUMORS” (Memorial Sloan Kettering Cancer Center, priority 2016, published 2021).

Assays:
macrophages = details: cited from earlier work
[1] = cited from earlier work
ECLC26 flank tumor = details: ECLC26 flank tumors, multi-dose, caliper measurements
Protocol: Tumor volume was measured using caliper measurements of the maximal dimensions of the tumor daily.
Nude mice were implanted with 2 million ECLC26 cells. Mice bearing tumors were treated by i.v. of 200 μL saline or 15 μM Gef-NDC for 2 doses of Gavage with 15 mg/ml Gefitinib, 10 μL/g for 10 days.

NSCLC CNS metastases = details: pulsatile high-dose, cited from earlier work

Structure (SMILES): CNC(=O)c1cc(Oc2ccc3nc(N[C@@H]4CCCC[C@H]4O)sc3c2)ccn1 [BLZ945]
- expression of M2 polarization markers in TAMs (macrophages): decreased expression of M2 polarization markers
- phagocytic activity of macrophages (macrophages): upregulated

Structure (SMILES): COc1cc2ncnc(Nc3ccc(F)c(Cl)c3)c2cc1OCCCN1CCOCC1 [Gefitinib, gefitinib]
- protein binding [1]: highly protein bound
- tumor volume over time (ECLC26 flank tumor): steady decrease in tumor volume

Structure (SMILES): C#Cc1cccc(Nc2ncnc3cc(OCCOC)c(OCCOC)cc23)c1 [erlotinib]
- response of CNS metastases (NSCLC CNS metastases; 3 patients): the response is unpredictable, even at high dose
- CNS penetration (NSCLC CNS metastases; patients): improves CNS penetration for NSCLC metastases
